Test results: US20260151403A1, “NEK7 DEGRADERS AND METHODS OF USE THEREOF” (Captor Therapeutics S.A., priority 2022, published 2026)

What was measured:
[1] = target: T1, [NEK7]-[compound of formula (I)]-[CRBN/DDB1] complex (Homo sapiens, UniProt Q8TDX7+Q96SW2); experiment: AlphaLISA dose response ternary complex formation assay; format: binding; settings: 1 μM compound, normalized to maximum signal of Compound 2 (positive control) and DMSO background; for activation at 1 µM: read-out: Normalized AlphaLISA ternary complex average signal at 1 μM molecule
T1 sequence (Q8TDX7 whole entry): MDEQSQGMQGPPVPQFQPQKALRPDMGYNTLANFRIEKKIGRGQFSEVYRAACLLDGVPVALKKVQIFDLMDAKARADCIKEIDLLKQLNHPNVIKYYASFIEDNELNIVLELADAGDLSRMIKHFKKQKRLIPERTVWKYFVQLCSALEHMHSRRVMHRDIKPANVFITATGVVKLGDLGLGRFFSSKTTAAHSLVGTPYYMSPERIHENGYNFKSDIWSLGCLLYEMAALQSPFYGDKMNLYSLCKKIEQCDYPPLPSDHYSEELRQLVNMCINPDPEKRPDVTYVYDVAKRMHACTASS
T1 sequence (Q96SW2 whole entry): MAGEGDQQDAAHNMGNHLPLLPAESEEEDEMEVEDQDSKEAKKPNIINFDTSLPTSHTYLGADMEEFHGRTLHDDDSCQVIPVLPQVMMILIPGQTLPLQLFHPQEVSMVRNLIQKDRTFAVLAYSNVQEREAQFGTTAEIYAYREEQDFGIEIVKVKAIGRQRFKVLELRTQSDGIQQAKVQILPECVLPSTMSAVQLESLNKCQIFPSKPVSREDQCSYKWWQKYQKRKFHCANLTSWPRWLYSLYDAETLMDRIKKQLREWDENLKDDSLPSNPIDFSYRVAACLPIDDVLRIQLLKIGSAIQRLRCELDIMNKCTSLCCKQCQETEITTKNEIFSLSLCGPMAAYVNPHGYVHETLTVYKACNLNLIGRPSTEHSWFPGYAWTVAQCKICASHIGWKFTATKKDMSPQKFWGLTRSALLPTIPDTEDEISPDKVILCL
T1 sequence (Q16531 whole entry partner): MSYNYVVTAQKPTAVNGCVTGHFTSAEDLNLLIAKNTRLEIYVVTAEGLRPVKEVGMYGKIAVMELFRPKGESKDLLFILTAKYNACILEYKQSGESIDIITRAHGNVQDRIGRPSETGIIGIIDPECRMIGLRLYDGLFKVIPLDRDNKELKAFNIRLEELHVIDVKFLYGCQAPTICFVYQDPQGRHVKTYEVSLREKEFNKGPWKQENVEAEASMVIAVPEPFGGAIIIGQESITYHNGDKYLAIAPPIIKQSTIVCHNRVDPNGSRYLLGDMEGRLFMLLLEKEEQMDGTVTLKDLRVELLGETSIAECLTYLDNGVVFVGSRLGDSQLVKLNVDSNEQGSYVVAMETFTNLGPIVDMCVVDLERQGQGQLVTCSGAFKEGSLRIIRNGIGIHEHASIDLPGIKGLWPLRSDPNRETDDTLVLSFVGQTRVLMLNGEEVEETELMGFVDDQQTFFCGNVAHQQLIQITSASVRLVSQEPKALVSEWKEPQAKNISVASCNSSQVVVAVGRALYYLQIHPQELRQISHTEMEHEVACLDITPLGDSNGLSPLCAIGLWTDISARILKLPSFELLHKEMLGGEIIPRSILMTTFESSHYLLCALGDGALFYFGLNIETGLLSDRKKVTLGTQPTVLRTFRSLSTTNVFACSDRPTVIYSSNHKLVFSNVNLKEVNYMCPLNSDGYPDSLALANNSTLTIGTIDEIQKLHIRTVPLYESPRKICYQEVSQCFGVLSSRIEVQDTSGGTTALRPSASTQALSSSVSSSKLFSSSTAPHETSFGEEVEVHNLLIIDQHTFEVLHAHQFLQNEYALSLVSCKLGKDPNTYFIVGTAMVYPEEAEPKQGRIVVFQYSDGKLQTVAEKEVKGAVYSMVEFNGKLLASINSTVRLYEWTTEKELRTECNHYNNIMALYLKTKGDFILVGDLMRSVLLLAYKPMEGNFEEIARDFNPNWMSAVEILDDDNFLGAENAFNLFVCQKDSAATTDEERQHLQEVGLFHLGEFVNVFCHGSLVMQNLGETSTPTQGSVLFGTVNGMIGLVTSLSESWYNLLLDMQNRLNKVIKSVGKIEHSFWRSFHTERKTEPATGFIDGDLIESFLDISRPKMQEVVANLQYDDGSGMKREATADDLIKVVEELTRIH
Protocol: The effect of the molecular glue compounds of the invention on the formation of a ternary complex composed of [NEK7]-[compound of formula (I)]-[CRBN/DDB1] was investigated with two methods: AlphaLISA dose response assay or HTRF ternary complex assay.
Two types of protein solution were prepared: • 200 nM biotinylated NEK7, 40 μg/ml AlphaScreen Streptavidin-coated Donor Beads in HBS (10 mM HEPES, 150 mM NaCL, pH 7.4) buffer with 0.1% Tween-20 and 1 mM DTT, • 200 nM 6×His-CRBN/Strep-DDB1, 40 μg/ml AlphaLISA Anti-6×His Acceptor beads in HBS buffer with 0.1% Tween-20 and 1 mM DTT.
The prepared solutions were incubated at room temperature for 30 min and then the solution containing the donor beads was mixed with the solution containing the acceptor beads.
The tested compounds were dispensed onto a white 384-well AlphaPlate 384 SW. DMSO was backfilled to all wells, resulting in a final DMSO content of 2%. Wells containing only DMSO served as background. Next, 10 μl of solution with donor and acceptor beads was added to the wells.
The plate was sealed with transparent film and shaken using a VibroTurbulator for 60 sec at room temperature, level 3. The plate was then spun down shortly (10 s, 1000 rcf, room temperature) and incubated at 25° C. for 30 min.
The read-out was performed with PerkinElmer Enspire Multimode Plate Reader (method for AlphaLISA 384-well low volume, Filterset: λexc=680 nm, λem=615 nm).
The results were analyzed as follows: • 1) an average of luminescence for background signal was calculated and used as a negative control; • 2) average of the maximum measured luminescence for Compound 2 was calculated and used as an internal positive control; • 3) raw luminescence values were normalized against positive and negative controls; • 4) Normalized responses to Compound 2 were determined.

[2] = target: T1, [NEK7]-[compound of formula (I)]-[CRBN/DDB1] complex; experiment: HTRF ternary complex assay; format: binding; settings: dose-response, 180 min at 25° C.; for EC50: read-out: HTRF ternary complex Average pEC50 by molecule (converted)
Protocol: The effect of the molecular glue compounds of the invention on the formation of a ternary complex composed of [NEK7]-[compound of formula (I)]-[CRBN/DDB1] was investigated.
Mix solution of proteins and reagents was prepared: • 24 nM NEK7, 52.8 nM 6×His-CRBN/Strep-DDB1, 3 nM of Streptavidin-Eu cryptate […] and 6.67 nM of Anti-6×his-d2 […] was prepared in PPI Europium detection buffer (Cisbio) with 1 mM DTT.
The tested compounds in dose-response were dispensed onto a white 384-well low volume plate (Greiner, 784075). DMSO was backfilled to all wells, resulting in a final DMSO content of 0.5%. Wells containing only DMSO served as background.
The plate was sealed with transparent film and shaken using a VibroTurbulator for 60 sec at level 3.
The plate was then spun down shortly (10 s, 1000 rcf) and incubated at 25° C. for 180 min.
The read-out was performed with plate reader (Pherastar, BMG Labtech) in time resolved fluorescence mode. Filterset: TR 337 665 620.
The results were analyzed as follows: • 1) an average of fluorescence for background signal was calculated and used as a negative control; • 2) raw fluorescence values for tested compounds were normalized against negative controls; • 3) saturation curve was fitted to specific binding with Hill slope model; • 4) EC50 and pEC50 values were determined.

[3] = target: NEK7-HiBiT protein (Homo sapiens, UniProt Q8TDX7); experiment: NEK7-HiBiT degradation assay (Nano-Glo HiBiT Lytic Assay) in HEK293 NEK7-HiBiT cells; format: cell-based; settings: 24 h, conc. 0.1, 1 and 10 μM tested, concentration of the table values not stated, mean of 3 technical replicates
Sequence of NEK7-HiBiT protein (Q8TDX7 whole entry): as the sequence (Q8TDX7 whole entry) above
Sequence of NEK7-HiBiT protein (Q96SW2 whole entry, further chain): as the sequence (Q96SW2 whole entry) above
Sequence of NEK7-HiBiT protein (Q16531 whole entry partner): as the sequence (Q16531 whole entry partner) above
Protocol: HEK293 NEK7-HiBiT cells were generated using CRISPR-Cas9 system. HEK293 cells were transformed with pSpCas9-BB-2A-Puro v2.0 plasmid carrying gRNA targeting the N-terminus of NEK7 and ssODN template containing the HiBiT tag sequence with flanking homology sequences. Neon Transfection System (Thermo Fisher Scientific) was used for electroporation. HEK293 NEK7-HiBiT cells were cultured with DMEM Glutamax (Gibco) supplemented with 10% heat inactivated FBS (Gibco). After transfection the culture medium was changed to DMEM Glutamax with 10% heat-inactivated FBS and 1% Penicillin-Streptomycin (Biowest) supplemented with Puromycin (2 μg/ml; Invivogen) for clonal selection. In order to isolate single cell clones for further validation and analysis, limiting dilution cloning in 96-well plates was performed. When the single clones reached confluency, HiBiT Lytic Assay (Promega) was performed in order to identify HiBiT positive clones. The clone selected for further studies was verified and validated using genotyping and HiBiT Blotting (Promega).
Selected clone of HEK293 NEK7-HiBiT cells was maintained in the DMEM-Glutamax medium supplemented with 10% of heat-inactivated FBS (Gibco) and 1% of Penicillin-Streptomycin Solution 100x (Biowest) at 37° C., 5% CO2 and subcultured every 2-3 days.
For Nano-Glo HiBiT Lytic Assay HEK293 NEK7-HiBiT cells were seeded at the density 2×10^3 cells in triplicates in the 40 μL of growth medium per single well on 384 well plate (Greiner Bio-One). Compounds or DMSO were added to treatment plates using Echo555 Liquid Handler and incubated at 37° C., 5% CO2 for 24 hours. After incubation 40 μL of Nano-Glo HiBiT Lytic Reagent (prepared according to the manufacturer protocol) were added to 40 μL of the cell culture medium present in each well. The plate content was briefly mixed (460 rpm) on an orbital shaker to ensure cell lysis. The plate was left at RT protected from light for another 10 min to stabilize the luminescent signal. The luminescence signal was measured using CLARIOstar Multimode Plate Reader. Focus and gain were adjusted to DMSO treated cells. The results were calculated as the NEK7-HiBiT % relative to the DMSO control of 3 technical replicates relative to the DMSO control.
HEK293 NEK7-HiBiT cells were treated with the compounds (conc. 0.1, 1 and 10 μM) or DMSO for 24 h. After incubation with compounds NEK7-HiBiT degradation was measured as a luminescence signal using CLARIOstar Multimode Plate reader.
Additionally, compounds reducing NEK7-HiBiT protein level by >=50% at 0.1 μM, were also identified.

SMILES | activation at 1 µM [1] [%] | EC50 [2] [nM] | Levels of NEK7-HiBiT Protein (as a % of DMSO control) [3] | Normalized AlphaLISA ternary complex average signal at 1 μM molecule [1] | HTRF ternary complex Average pEC50 by molecule [2]
O=C1CCC(N2Cc3c(csc3C3CCCCO3)C2=O)C(=O)N1 (centres unmarked) [Compound 71, 3-(4-oxo-1-(tetrahydro-2H-pyran-2-yl)-4H-thieno[3,4-c]pyrrol-5 (6H)-yl)piperidine-2,6-dione] | < 10 | > 3160 | D (Levels of NEK7-HiBiT Protein ≥ 75%) | – | –
CC(C)(C)C(=O)OCN1C(=O)CCC(N2Cc3cc(C4CCCCN4)ccc3C2=O)C1=O (centres unmarked) [Compound 63, (2,6-dioxo-3-(1-oxo-5-(piperidin-2-yl)isoindolin-2-yl)piperidin-1-yl)methyl pivalate] | – | – | A (Levels of NEK7-HiBiT Protein ≤ 25%) | – | –
O=C1CCC(N2Cc3cc(-c4ccc5ccccc5n4)ccc3C2=O)C(=O)N1 (centres unmarked) [5(2), 3-(1-oxo-5-(quinolin-2-yl)isoindolin-2-yl)piperidine-2,6-dione] | > 80 | 100 to 316 | B (Levels of NEK7-HiBiT Protein > 25% and ≤50%) | – | –
O=C1CCC(N2C(=O)c3ccc(-c4ccccn4)c4cccc2c34)C(=O)N1 (centres unmarked) [23(2), 3-(2-oxo-5-(pyridin-2-yl)benzo[cd]indol-1 (2H)-yl)piperidine-2,6-dione] | > 80 | < 100 | B (Levels of NEK7-HiBiT Protein > 25% and ≤50%) | – | –
O=C1CCC(N2Cc3cc([C@@H]4CCCCN4)ccc3C2=O)C(=O)N1 (stereo partly drawn) [Compound 10, 3-(1-oxo-5-((S)-piperidin-2-yl)isoindolin-2-yl)piperidine-2,6-dione] | 10 to 20 | 316 to 1000 | C (Levels of NEK7-HiBiT Protein > 50% and <75%) | – | –
O=C1CCC(N2Cc3cc(C4CCCCCN4)ccc3C2=O)C(=O)N1 (centres unmarked) [Compound 62, 3-(5-(azepan-2-yl)-1-oxoisoindolin-2-yl)piperidine-2,6-dione] | 20 to 80 | 316 to 1000 | B (Levels of NEK7-HiBiT Protein > 25% and ≤50%) | – | –
CC(=O)NC1CCC(c2ccc3c(c2)CN(C2CCC(=O)NC2=O)C3=O)NC1 (single isomer, unassigned) [33 Isomer 2, N-(6-(2-(2,6-dioxopiperidin-3-yl)-1-oxoisoindolin-5-yl)piperidin-3-yl)acetamide] | – | – | B (Levels of NEK7-HiBiT Protein > 25% and ≤50%) | B (Normalized activity > 20% and <80%) | ++++ (7.0 > pEC50 > 6.5)
CCCCC1CCC(c2ccc3c(c2)CN(C2CCC(=O)NC2=O)C3=O)OC1 (single isomer, unassigned) [70 Isomer 2, 3-(5-(5-butyltetrahydro-2H-pyran-2-yl)-1-oxoisoindolin-2-yl)piperidine-2,6-dione] | – | 1000 to 3160 | B (Levels of NEK7-HiBiT Protein > 25% and ≤50%) | A (Normalized activity > 80%) | –
Cc1cc2c(cc1C1CCCCN1)CN(C1CCC(=O)NC1=O)C2=O (centres unmarked) [Compound 20, 3-(6-methyl-1-oxo-5-(piperidin-2-yl)isoindolin-2-yl)piperidine-2,6-dione] | < 10 | > 3160 | D (Levels of NEK7-HiBiT Protein ≥ 75%) | – | –
O=C1CCC(N2Cc3cc(C4COCCO4)ccc3C2=O)C(=O)N1 (centres unmarked) [Compound 68, 3-(5-(1,4-dioxan-2-yl)-1-oxoisoindolin-2-yl)piperidine-2,6-dione] | 10 to 20 | 316 to 1000 | D (Levels of NEK7-HiBiT Protein ≥ 75%) | – | –
O=C1CCC(N2Cc3cc(C4CCC(c5ccccc5)CN4)ccc3C2=O)C(=O)N1 (single isomer, unassigned) [32 Isomer 2, 3-(1-oxo-5-(5-phenylpiperidin-2-yl)isoindolin-2-yl)piperidine-2,6-dione] | – | 316 to 1000 | A (Levels of NEK7-HiBiT Protein ≤ 25%) | A (Normalized activity > 80%) | –
O=C1CCC(N2Cc3cc(C4CCC(Cc5ccccc5)CN4)ccc3C2=O)C(=O)N1 (single isomer, unassigned) [35 Isomer 1, 3-(5-(5-benzylpiperidin-2-yl)-1-oxoisoindolin-2-yl)piperidine-2,6-dione] | > 80 | 100 to 316 | B (Levels of NEK7-HiBiT Protein > 25% and ≤50%) | – | –
O=C1CCC(N2C(=O)c3cccc4c(C5CCCCN5)ccc2c34)C(=O)N1 (centres unmarked) [Compound 59, 3-(2-oxo-6-(piperidin-2-yl)benzo[cd]indol-1 (2H)-yl)piperidine-2,6-dione] | < 10 | > 3160 | D (Levels of NEK7-HiBiT Protein ≥ 75%) | – | –
O=C1CCC(N2Cc3cc(C4CCCCN4)sc3C2=O)C(=O)N1 (centres unmarked) [Compound 72, 3-(6-oxo-2-(piperidin-2-yl)-4,6-dihydro-5H-thieno[2,3-c]pyrrol-5-yl)piperidine-2,6-dione] | < 10 | > 3160 | C (Levels of NEK7-HiBiT Protein > 50% and <75%) | – | –
O=C1CCC(N2Cc3cc(C4CCC(Cc5ccccc5)CN4)ccc3C2=O)C(=O)N1 (single isomer, unassigned) [35 Isomer 2, 3-(5-(5-benzylpiperidin-2-yl)-1-oxoisoindolin-2-yl)piperidine-2,6-dione] | – | – | B (Levels of NEK7-HiBiT Protein > 25% and ≤50%) | – | –
